From patent US20040057908A1, “Oral compositions and use thereof” (priority 2003, published 2004)
Values after ≈ are worked out from the molar mass of the structure shown. Like-named read-outs stand apart in the source and are kept apart here.

What was measured:
[1] = target: T1, GTF D (Streptococcus mutans serotype c, UniProt P49331); test: GTF activity adsorbed onto sHA surface, GTF D; assay type: biochemical; settings: mean (SD)
T1 construct: made in house; host or cells: Streptococcus milleri NH5 (culture supernatant)
T1 sequence (P49331 whole entry): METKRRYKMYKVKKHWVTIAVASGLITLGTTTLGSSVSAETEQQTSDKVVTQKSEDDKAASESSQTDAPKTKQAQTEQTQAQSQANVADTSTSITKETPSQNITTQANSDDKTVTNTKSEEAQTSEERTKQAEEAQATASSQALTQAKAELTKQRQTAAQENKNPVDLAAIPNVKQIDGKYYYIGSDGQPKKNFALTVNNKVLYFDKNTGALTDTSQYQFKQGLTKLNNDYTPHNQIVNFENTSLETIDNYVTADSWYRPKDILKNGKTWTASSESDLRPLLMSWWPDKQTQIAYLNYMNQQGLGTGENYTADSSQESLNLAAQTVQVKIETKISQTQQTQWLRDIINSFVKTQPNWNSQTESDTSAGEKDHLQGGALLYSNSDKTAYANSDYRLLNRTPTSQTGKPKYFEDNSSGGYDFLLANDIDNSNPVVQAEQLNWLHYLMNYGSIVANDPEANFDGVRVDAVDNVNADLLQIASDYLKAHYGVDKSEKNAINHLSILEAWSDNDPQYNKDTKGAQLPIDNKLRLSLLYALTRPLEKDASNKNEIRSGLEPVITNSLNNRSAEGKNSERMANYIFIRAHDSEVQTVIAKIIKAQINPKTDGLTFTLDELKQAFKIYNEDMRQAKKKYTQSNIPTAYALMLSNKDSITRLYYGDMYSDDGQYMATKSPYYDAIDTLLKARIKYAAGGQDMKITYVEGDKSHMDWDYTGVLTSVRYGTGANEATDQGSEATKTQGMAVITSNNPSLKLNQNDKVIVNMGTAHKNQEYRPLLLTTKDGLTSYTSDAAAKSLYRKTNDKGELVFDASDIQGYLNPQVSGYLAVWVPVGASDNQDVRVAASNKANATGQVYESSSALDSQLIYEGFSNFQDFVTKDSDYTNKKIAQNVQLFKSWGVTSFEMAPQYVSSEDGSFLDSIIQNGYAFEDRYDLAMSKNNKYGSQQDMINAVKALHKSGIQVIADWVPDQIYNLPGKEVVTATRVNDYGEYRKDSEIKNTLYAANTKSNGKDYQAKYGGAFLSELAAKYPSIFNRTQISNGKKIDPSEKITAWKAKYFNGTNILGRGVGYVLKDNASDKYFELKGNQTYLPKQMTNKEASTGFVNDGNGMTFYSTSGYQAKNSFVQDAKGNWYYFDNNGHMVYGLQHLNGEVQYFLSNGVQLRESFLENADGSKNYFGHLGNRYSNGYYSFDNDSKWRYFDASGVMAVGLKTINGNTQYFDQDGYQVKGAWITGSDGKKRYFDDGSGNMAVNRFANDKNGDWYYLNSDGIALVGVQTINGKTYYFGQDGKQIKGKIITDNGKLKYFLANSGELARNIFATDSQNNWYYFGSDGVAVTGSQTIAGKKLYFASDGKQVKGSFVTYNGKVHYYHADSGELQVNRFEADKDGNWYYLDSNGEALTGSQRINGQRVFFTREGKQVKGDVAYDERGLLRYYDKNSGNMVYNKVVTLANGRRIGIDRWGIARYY
Procedure: (§1) Glucosyltransferase activity was measured by the incorporation of [^14C-glucose] from labeled sucrose (NEN Research Products, Boston, Mass.) into glucans (Germaine et al., 1974; Venkitaraman et al., 1995). The GTF enzyme added to each sample for all assays was equivalent to the amount required to incorporate 1.0-1.5 μmol of glucose over the four hours reaction (1.0-1.5 units).
(§2) For surface assays, the GTFs were adsorbed to hydroxyapatite beads coated with clarified whole saliva (free of GTF activity), as detailed elsewhere (Koo et al., 2000c; Schilling and Bowen, 1988, Venkitaraman et al., 1995). The saliva-coated hydroxyapatite (sHA) beads were exposed to sufficient enzyme to saturate the surface as determined experimentally. Following the adsorption of the enzyme, the beads were washed 3 times with buffer to remove the loosely bound material and exposed to 300 μl of the two-fold dilution series of test compounds (or control) for 30 min. at the same concentrations described above. The beads were washed and exposed to 300 μl [^14C-glucose]-sucrose substrate (100.0 mmol/l sucrose, final concentration). The radiolabeled glucan formed was collected and quantified by scintillation counting (Germaine et al., 1974; Venkitaraman et al., 1995). All the solution and surface assays were done in quadruplicate in at least 3 different experiments.

[2] = tested on: Streptococcus mutans GS-5; test: MIC and MBC, broth dilution; assay type: cell-based
Procedure: (§3) The minimum inhibitory concentration (MIC) and minimum bactericidal concentration (MBC) were determined for each test compound according to the National Committee for Clinical Laboratory Standards guidelines (Tentative standard M26-T, 1992; NCCLS Publication No. M7-A5, 2000) and Koo et al. (2000b). The broth microdilution and macrodilution methods (in TSB) were used for the antibacterial tests. The starting inoculum was 5×10^5 CFU/ml and the concentrations of test compounds ranged from 15.6 to 500 μM (two-fold dilutions). The MICs and MBCs were determined in quadruplicate in at least 3 different experiments.

[3] = tested on: Streptococcus mutans UA 159; test: MIC and MBC, broth dilution; assay type: cell-based
Procedure: as §3

[4] = tested on: Streptococcus sobrinus 6715; test: MIC and MBC, broth dilution; assay type: cell-based
Procedure: as §3

[5] = target: T2, GTF B (Streptococcus mutans serotype c, UniProt P08987); test: GTF activity in solution, GTF B; assay type: biochemical; settings: mean (SD)
T2 construct: made in house; host or cells: Streptococcus milleri KSB8 (culture supernatant)
T2 sequence (P08987 35-1476): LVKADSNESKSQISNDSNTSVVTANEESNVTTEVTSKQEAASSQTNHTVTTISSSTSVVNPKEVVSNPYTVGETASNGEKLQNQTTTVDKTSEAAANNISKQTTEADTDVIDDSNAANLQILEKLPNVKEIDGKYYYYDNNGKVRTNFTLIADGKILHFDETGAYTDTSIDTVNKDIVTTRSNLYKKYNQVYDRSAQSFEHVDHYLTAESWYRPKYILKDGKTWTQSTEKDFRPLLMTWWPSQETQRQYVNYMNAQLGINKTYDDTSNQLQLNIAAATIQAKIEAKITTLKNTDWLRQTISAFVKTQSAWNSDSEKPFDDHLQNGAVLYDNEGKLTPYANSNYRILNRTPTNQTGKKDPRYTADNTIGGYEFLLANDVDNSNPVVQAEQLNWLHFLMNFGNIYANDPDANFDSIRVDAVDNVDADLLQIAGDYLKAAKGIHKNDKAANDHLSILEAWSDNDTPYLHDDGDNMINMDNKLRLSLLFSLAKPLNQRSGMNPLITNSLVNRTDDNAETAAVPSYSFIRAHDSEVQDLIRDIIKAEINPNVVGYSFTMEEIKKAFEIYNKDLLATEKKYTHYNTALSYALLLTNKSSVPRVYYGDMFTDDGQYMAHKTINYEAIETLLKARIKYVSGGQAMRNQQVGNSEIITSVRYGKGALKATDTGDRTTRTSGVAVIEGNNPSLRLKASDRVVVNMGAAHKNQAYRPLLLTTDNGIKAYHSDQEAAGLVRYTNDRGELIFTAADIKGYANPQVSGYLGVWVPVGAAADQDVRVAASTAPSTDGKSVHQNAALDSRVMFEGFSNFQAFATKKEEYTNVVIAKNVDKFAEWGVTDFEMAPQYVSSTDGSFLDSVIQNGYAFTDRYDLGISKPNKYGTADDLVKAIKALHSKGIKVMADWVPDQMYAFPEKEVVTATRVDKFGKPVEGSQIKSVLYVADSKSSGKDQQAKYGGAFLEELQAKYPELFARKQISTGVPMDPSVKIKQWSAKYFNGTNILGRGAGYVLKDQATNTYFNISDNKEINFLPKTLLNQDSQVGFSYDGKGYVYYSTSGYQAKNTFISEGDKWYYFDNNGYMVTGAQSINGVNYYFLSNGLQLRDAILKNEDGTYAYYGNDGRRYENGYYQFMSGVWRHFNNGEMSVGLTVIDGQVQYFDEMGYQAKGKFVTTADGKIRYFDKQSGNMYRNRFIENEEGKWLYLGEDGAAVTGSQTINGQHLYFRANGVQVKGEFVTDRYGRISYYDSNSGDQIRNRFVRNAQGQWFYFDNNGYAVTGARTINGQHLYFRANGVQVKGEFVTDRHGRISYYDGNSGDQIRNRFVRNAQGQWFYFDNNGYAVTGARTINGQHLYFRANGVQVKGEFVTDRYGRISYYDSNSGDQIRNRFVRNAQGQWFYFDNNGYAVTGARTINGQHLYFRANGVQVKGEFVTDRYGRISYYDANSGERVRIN
Procedure: as §1
(§4) For solution assays, purified GTF B, C, D and Ss were mixed with a two-fold dilution series of the test compounds (concentration ranging from 125 to 500 μM) and incubated with [^14C-glucose]-sucrose substrate (0.2 μCi/ml) (200.0 mmol/l sucrose, 40 μmol/l dextran 9000, 0.02% sodium azide in adsorption buffer—50 mM KCl, 1.0 mM KPO4, 1.0 mM CaCl2, 0.1 mM MgCl2−pH=6.5) to reach a final concentration of 100 mmol/l sucrose (200 μl final volume). For the control, the same reaction was carried out, where ethanol:DMSO (final concentration of 7.5% and 1.25%, v/v) or ethanol (final concentration of 5%, v/v) replaced the test agent solutions. The samples were incubated 37° C. with rocking for 4 h. After incubation, ice-cold ethanol (1.0 ml) was added and the samples were stored for 18 h, 4° C. for precipitation of glucans. Radiolabeled glucan was determined by scintillation counting (Germaine et al., 1974; Venkitaraman et al., 1995).

[6] = target: T2, GTF B; test: GTF activity adsorbed onto saliva-coated hydroxyapatite (sHA) surface, GTF B; assay type: biochemical; settings: mean (SD)
Procedure: as §1, §2

[7] = target: T3, GTF C (Streptococcus mutans serotype c, UniProt P13470); test: GTF activity in solution, GTF C; assay type: biochemical; settings: mean (SD)
T3 construct: The supernatant was carefully collected as the source of GTF C; made in house; host or cells: Streptococcus mutans WHB 410 (endogenous gtfC; urea/Triton extract of washed cells, hydroxyapatite chromatography)
T3 sequence (P13470 35-1455): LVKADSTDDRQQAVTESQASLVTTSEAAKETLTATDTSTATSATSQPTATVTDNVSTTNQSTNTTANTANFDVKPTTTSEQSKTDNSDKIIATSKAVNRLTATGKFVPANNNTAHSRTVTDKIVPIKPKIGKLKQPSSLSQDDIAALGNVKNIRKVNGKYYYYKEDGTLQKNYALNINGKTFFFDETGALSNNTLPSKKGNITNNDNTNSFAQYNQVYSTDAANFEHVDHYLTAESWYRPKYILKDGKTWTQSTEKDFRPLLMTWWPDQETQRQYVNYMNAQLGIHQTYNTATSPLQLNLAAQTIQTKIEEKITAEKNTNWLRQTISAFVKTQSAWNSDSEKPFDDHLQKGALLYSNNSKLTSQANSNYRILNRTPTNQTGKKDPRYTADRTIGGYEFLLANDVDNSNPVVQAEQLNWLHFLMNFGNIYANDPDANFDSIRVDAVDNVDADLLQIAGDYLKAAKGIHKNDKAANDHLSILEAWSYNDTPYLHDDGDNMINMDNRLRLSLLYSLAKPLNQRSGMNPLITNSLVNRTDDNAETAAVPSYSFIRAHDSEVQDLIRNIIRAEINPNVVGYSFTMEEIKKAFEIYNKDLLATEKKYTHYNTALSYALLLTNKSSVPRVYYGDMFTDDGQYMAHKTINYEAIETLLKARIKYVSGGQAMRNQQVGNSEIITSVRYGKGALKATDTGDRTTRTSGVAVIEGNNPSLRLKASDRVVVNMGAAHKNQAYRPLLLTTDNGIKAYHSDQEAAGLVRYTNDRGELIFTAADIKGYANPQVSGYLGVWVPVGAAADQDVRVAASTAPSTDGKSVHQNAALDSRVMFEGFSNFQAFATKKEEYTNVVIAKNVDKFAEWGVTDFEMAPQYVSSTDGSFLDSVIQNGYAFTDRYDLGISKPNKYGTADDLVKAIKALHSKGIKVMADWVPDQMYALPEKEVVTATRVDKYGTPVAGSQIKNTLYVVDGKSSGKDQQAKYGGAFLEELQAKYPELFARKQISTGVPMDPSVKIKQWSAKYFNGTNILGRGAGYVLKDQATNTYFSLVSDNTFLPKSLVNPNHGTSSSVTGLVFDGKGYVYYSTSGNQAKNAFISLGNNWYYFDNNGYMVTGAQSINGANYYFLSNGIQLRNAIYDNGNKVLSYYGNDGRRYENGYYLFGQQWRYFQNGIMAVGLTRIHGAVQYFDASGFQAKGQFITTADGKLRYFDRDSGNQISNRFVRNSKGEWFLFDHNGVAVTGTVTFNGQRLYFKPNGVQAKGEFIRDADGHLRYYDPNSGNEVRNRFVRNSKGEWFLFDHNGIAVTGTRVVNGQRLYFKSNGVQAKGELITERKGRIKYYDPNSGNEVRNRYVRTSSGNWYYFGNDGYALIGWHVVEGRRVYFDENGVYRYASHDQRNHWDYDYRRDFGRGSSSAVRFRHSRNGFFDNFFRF
Procedure: as §1, §4

[8] = target: T4, GTF Ss (Streptococcus sanguinis, UniProt A3CLJ9); test: GTF activity in solution, GTF Ss; assay type: biochemical, S. sanguinis; settings: mean (SD)
Procedure: as §1, §4

[9] = target: T3, GTF C; test: GTF activity adsorbed onto sHA surface, GTF C; assay type: biochemical; settings: mean (SD)
Procedure: as §1, §2

[10] = target: T4, GTF Ss; test: GTF activity adsorbed onto sHA surface, GTF Ss; assay type: biochemical, S. sanguinis; settings: mean (SD)
Procedure: as §1, §2

[11] = tested on: Mutans Streptococci Strains; test: MIC and MBC, broth dilution, all strains stated together; assay type: cell-based, S. mutans (GS-5 and UA159) and S. sobrinus 6715
Procedure: as §3

[12] = target: T1, GTF D; test: GTF activity in solution, GTF D; assay type: biochemical; settings: mean (SD)
Procedure: as §1, §4

[13] = all strains tested (S. mutans GS-5, UA159, S. sobrinus 6715), read-out: MIC

Row | Compound | GTF D surf. % of Inhib. ([1]; 125 μM) | GTF D surf. % of Inhib. ([1]; 250 μM) | GTF D surf. % of Inhib. ([1]; 500 μM) | MBC [2] [µM] | MIC [2] [µM] | MBC [3] [µM] | MIC [3] [µM] | MBC ([4]; Streptococcus sobrinus 6715) [µM] | MIC ([4]; Streptococcus sobrinus 6715) [µM] | GTF B sol. % of Inhib. ([5]; 125 μM) | GTF B sol. % of Inhib. ([5]; 250 μM) | GTF B sol. % of Inhib. ([5]; 500 μM) | GTF B surf. % of Inhib. ([6]; 125 μM) | GTF B surf. % of Inhib. ([6]; 250 μM) | GTF B surf. % of Inhib. ([6]; 500 μM) | GTF C sol. % of Inhib. ([7]; 125 μM) | GTF C sol. % of Inhib. ([7]; 250 μM) | GTF C sol. % of Inhib. ([7]; 500 μM) | GTF Ss sol. % of Inhib. ([8]; 125 μM) | GTF Ss sol. % of Inhib. ([8]; 250 μM) | other results
1 | CC(=O)O[C@H]1C(=O)c2c(O)cc(O)cc2O[C@@H]1c1ccccc1 [Pinobanksin-3-acetate] | 0.0 (0.0) % | 4.5 (2.0) % | 10.1 (2.8) % | >500 | 500 (≈ 157 µg/mL) | >500 | 500 (≈ 157 µg/mL) | >500 | 250 (≈ 78.6 µg/mL) | 0.0 (0.8) % | 7.7 (3.5) % | 18.9 (2.8) % | 9.4 (4.8) % | 7.3 (2.1) % | 10.3 (3.5) % | 0.0 (0.0) % | 3.5 (4.2) % | 16.7 (4.3) % | 4.6 (5.7) % | 22.8 (3.6) % | GTF Ss sol. % of Inhib. ([8]; 500 μM): 30.5 (7.2) %; GTF C surf. % of Inhib. ([9]; 125 μM): 0.0 (0.1) %; GTF C surf. % of Inhib. ([9]; 250 μM): 0.0 (0.0) %; GTF C surf. % of Inhib. ([9]; 500 μM): 0.0 (3.3) %; GTF Ss surf. % of Inhib. ([10]; 125 μM): 0.0 (0.6) %; GTF Ss surf. % of Inhib. ([10]; 250 μM): 0.0 (2.7) %; GTF Ss surf. % of Inhib. ([10]; 500 μM): 9.9 (5.9) %; MIC ([11]; all strains tested): 157 µg/mL; MIC [11, 13]: 500 µM; GTF D sol. % of Inhib. ([12]; 125 μM): 5.5 (4.5) %; GTF D sol. % of Inhib. ([12]; 250 μM): 2.7 (3.3) %; GTF D sol. % of Inhib. ([12]; 500 μM): 3.5 (2.1) %
2 | O=C(O)/C=C/c1ccc(O)cc1 [p-Coumaric acid] |  |  |  |  |  |  |  |  |  |  |  |  |  |  |  |  |  |  |  |  | MIC ([11]; Streptococcus mutans, all strains tested (S. mutans GS-5, UA159, S. sobrinus 6715), read-out: MIC): > 500 µM
3 | O=C(O)c1ccccc1 [Benzoic acid] |  |  |  |  |  |  |  |  |  |  |  |  |  |  |  |  |  |  |  |  | MIC ([11]; Streptococcus mutans): > 500 µM
4 | O=C1C[C@@H](c2ccccc2)Oc2cc(O)cc(O)c21 [Pinocembrin] | 0.0 (0.7) % | 8.2 (2.7) % | 15.5 (6.2) % | >500 | 250 (≈ 64.1 µg/mL) | >500 | 250 (≈ 64.1 µg/mL) | 500 | 250 (≈ 64.1 µg/mL) | 3.7 (5.2) % | 7.2 (1.6) % | 15.9 (4.7) % | 0.7 (3.3) % | 8.8 (4.3) % | 18.9 (5.4) % | 0.0 (0.7) % | 8.5 (3.2) % | 17.2 (4.2) % | 25.7 (4.1) % | 32.6 (6.8) % | MBC ([4]; S. sobrinus 6715): 128 µg/mL; GTF Ss sol. % of Inhib. ([8]; 500 μM): 45.7 (8.3) %; GTF C surf. % of Inhib. ([9]; 125 μM): 0.0 (0.0) %; GTF C surf. % of Inhib. ([9]; 250 μM): 0.4 (0.1) %; GTF C surf. % of Inhib. ([9]; 500 μM): 13.5 (4.9) %; GTF Ss surf. % of Inhib. ([10]; 125 μM): 0.0 (0.2) %; GTF Ss surf. % of Inhib. ([10]; 250 μM): 0.0 (4.2) %; GTF Ss surf. % of Inhib. ([10]; 500 μM): 10.5 (2.7) %; MIC ([11]; all strains tested): 64 µg/mL; MIC [11, 13]: 250 µM; GTF D sol. % of Inhib. ([12]; 125 μM): 1.5 (0.1) %; GTF D sol. % of Inhib. ([12]; 250 μM): 4.8 (2.7) %; GTF D sol. % of Inhib. ([12]; 500 μM): 14.9 (4.2) %
